These results are taken from patent US6869965B2, “Antimicrobial quinolone derivatives and use of the same to treat bacterial infections” (Pharmacia & Upjohn Company, priority 2000, dated 2005).

Type in all cases: cell-based
In one experiment the test system is E. faecalis UC9217. Description: Antibacterial activity, MIC. To be noted: strain UC9217.
The subject of another experiment is S. aureus UC9218. Description: Antibacterial activity, MIC. To be noted: strain UC9218.
The next experiment deals with S. pneumoniae UC9912. Description: Antibacterial activity, MIC. To be noted: strain UC9912.
The next experiment has as its system H. influenzae UC30063. Description: Antibacterial activity, MIC. The following applies: strain UC30063.
The next experiment deals with M. catarrhalis UC30607. Description: Antibacterial activity, MIC. To be noted: strain UC30607.
A further experiment has as its system E. coli UC6674. Description: Antibacterial activity, MIC. The following applies: strain UC6674.
Experiment [1] deals with E. faecalis, S. aureus, S. pneumoniae, H. influenzae, M. catarrhalis, E. coli. Description: Antibacterial activity, overall statement on Table 1. To be noted: summary in words of Table 1.

On to `CC(=O)NC[C@H]1CN(c2ccc(N3CCN(c4cc5c(cc4F)c(=O)c(C(=O)O)cn5C4CC4)CC3)c(F)c2)C(=O)O1` [Example 1], for which the “MIC E. faecalis UC9217” value against E. faecalis UC9217 was 0.25 :g/mL. Besides, the “MIC S. aureus UC9218” value against S. aureus UC9218 is given as 0.5 :g/mL. The “MIC S. pneumoniae UC9912” value against S. pneumoniae UC9912 was 0.125 :g/mL. Also, in the experiment on H. influenzae UC30063, the “MIC H. influenzae UC30063” value is 8 :g/mL. The “MIC M. catarrhalis UC30607” value in the experiment with M. catarrhalis UC30607 is listed as 1 :g/mL. Besides, the “MIC E. coli UC6674” value in the experiment on E. coli UC6674 is recorded as 16 :g/mL.
On to `CC(=O)NC[C@H]1CN(c2ccc(N3CCN(c4c(F)cc5c(=O)c(C(=O)O)cn6c5c4OCC6C)CC3)c(F)c2)C(=O)O1` (stereo partly shown) [Example 2], for which the “MIC E. faecalis UC9217” value in the experiment with E. faecalis UC9217 is listed as 0.5 :g/mL. Further, the “MIC S. aureus UC9218” value against S. aureus UC9218 is on record as 1 :g/mL. Also, the “MIC S. pneumoniae UC9912” value in the experiment with S. pneumoniae UC9912 was 0.25 :g/mL. Further, the “MIC H. influenzae UC30063” value against H. influenzae UC30063 is recorded as 4 :g/mL. In the experiment with M. catarrhalis UC30607, the “MIC M. catarrhalis UC30607” value is recorded as 2 :g/mL. Further, the “MIC E. coli UC6674” value against E. coli UC6674 is 16 :g/mL.
Consider `CC(=O)NC[C@H]1CN(c2ccc(-c3cc4c(cc3F)c(=O)c(C(=O)O)cn4C3CC3)c(F)c2)C(=O)O1` [Example 3, 7-(4{(5S)-5-[(Acetylamino)methyl]2-oxo-1,3-oxazolidin-3-yl}-2-fluorophenyl)-1-cyclopropyl-6-fluoro-4-oxo-1,4-dihydro-3-quinolinecarboxylic acid], for which the “MIC E. faecalis UC9217” value against E. faecalis UC9217 was 8 :g/mL. Also, the “MIC S. aureus UC9218” value in the experiment with S. aureus UC9218 is 2 :g/mL. The “MIC S. pneumoniae UC9912” value in the experiment on S. pneumoniae UC9912 is on record as 4 :g/mL. Besides, in the experiment with H. influenzae UC30063, the “MIC H. influenzae UC30063” value is 0.5 :g/mL. In the experiment with M. catarrhalis UC30607, the “MIC M. catarrhalis UC30607” value is 4 :g/mL. For the same compound, in the experiment with E. coli UC6674, the “MIC E. coli UC6674” value is 4 :g/mL. Moreover, in experiment [1], the antibacterial activity entry is “potent antibacterial activity”.
